Active and inactive are the calls of the source. The calls are words filed in the database; no cut-off is given here.
Key:
[1] = target: T1, Bile acid receptor (Homo sapiens) (UniProt Q96RI1); test: Transactivation of human FXR expressed in human HeLa cells at 30 uM incubated for 24 hrs by luciferase reporter gene assay; assay type: cell-based
T1 sequence (whole entry): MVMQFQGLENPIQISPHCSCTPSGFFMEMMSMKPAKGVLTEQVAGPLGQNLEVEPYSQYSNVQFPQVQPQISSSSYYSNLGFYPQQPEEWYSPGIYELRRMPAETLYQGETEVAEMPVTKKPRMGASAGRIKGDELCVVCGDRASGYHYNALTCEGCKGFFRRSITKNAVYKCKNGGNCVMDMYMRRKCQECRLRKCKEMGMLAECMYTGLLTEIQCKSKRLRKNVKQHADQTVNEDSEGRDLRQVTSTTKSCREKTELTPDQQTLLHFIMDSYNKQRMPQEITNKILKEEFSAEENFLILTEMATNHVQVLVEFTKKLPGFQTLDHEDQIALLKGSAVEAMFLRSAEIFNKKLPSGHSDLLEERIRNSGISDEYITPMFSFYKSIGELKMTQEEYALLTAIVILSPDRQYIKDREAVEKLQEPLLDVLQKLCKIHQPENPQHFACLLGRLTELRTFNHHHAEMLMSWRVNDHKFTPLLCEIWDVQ

[2] = target: T2, Peroxisome proliferator-activated receptor gamma (Homo sapiens) (UniProt P37231); test: Transactivation of Gal4-tagged PPARgamma ligand binding domain (unknown origin) expressed in COS7 cells at 30 uM measured after overnight incubation by luciferase reporter gene assay; assay type: cell-based; conditions: COS-7
T2 sequence (whole entry): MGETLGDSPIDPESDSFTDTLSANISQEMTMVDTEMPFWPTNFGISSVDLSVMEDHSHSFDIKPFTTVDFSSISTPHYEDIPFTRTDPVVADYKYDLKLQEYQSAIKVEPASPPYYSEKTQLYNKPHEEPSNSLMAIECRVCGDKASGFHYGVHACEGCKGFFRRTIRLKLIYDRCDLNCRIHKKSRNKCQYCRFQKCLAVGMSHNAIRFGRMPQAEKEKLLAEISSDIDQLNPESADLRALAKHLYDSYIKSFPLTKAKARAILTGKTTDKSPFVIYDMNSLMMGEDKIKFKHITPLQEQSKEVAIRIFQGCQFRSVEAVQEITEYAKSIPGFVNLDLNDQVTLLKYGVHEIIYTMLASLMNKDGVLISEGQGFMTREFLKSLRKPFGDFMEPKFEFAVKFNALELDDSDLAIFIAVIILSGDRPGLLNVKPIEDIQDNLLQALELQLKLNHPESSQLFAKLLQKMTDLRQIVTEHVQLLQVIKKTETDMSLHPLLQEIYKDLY

[3] = target: T3, Peroxisome proliferator-activated receptor alpha (Homo sapiens) (UniProt Q07869); test: Transactivation of Gal4-tagged PPARalpha ligand binding domain (unknown origin) expressed in COS7 cells at 30 uM measured after overnight incubation by luciferase reporter gene assay; assay type: cell-based; conditions: COS-7
T3 sequence (whole entry): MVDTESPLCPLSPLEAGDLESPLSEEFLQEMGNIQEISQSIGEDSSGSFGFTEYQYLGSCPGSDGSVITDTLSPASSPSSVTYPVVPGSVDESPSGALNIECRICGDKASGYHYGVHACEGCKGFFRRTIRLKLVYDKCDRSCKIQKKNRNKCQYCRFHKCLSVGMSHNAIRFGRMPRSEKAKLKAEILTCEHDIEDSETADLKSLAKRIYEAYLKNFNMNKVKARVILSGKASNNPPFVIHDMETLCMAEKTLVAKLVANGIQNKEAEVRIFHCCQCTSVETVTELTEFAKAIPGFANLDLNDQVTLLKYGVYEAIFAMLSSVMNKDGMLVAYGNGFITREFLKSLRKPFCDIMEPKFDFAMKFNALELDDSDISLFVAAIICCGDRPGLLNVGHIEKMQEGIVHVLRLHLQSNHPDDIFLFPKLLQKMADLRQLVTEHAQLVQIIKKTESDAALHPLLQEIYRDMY

[4] = target: T4, Peroxisome proliferator-activated receptor delta (Homo sapiens) (UniProt Q03181); test: Transactivation of Gal4-tagged PPARdelta ligand binding domain (unknown origin) expressed in COS7 cells at 30 uM measured after overnight incubation by luciferase reporter gene assay; assay type: cell-based; conditions: COS-7
T4 sequence (whole entry): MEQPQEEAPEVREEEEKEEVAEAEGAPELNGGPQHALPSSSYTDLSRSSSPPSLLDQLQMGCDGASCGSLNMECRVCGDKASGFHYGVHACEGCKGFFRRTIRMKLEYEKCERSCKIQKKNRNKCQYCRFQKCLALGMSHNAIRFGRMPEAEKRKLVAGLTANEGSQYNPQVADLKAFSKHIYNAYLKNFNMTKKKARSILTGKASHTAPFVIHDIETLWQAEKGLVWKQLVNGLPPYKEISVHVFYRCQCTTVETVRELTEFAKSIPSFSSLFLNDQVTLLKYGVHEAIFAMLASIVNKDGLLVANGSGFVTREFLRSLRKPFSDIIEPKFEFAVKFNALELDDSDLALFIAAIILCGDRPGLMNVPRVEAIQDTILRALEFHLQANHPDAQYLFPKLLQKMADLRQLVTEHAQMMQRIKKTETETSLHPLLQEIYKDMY

[5] = target: T2, Peroxisome proliferator-activated receptor gamma (Homo sapiens); test: Transactivation of Gal4-tagged PPARgamma ligand binding domain (unknown origin) expressed in COS7 cells measured after overnight incubation by luciferase reporter gene assay relative to piaglitazone; assay type: cell-based; conditions: Chlorocebus aethiops; COS-7
[6] = target: T5, Peroxisome proliferator-activated receptor gamma (Homo sapiens, UniProt P37231); test: Transactivation of Gal4-tagged PPARgamma ligand binding domain (unknown origin) expressed in COS7 cells measured after overnight incubation by luciferase reporter gene assay; assay type: cell-based, COS-7
T5 sequence (P37231 whole entry): T2 sequence (whole entry)

[7] = target: T1, Bile acid receptor (Homo sapiens); test: Transactivation of human FXR expressed in human HeLa cells incubated for 24 hrs by luciferase reporter gene assay relative to GW4064; assay type: cell-based
[8] = target: T6, Peroxisome proliferator-activated receptor alpha (Homo sapiens, UniProt Q07869); test: Transactivation of Gal4-tagged PPARalpha ligand binding domain (unknown origin) expressed in COS7 cells measured after overnight incubation by luciferase reporter gene assay; assay type: cell-based, COS-7
T6 sequence (Q07869 whole entry): T3 sequence (whole entry)

[9] = target: T7, Peroxisome proliferator-activated receptor delta (Homo sapiens, UniProt Q03181); test: Transactivation of Gal4-tagged PPARdelta ligand binding domain (unknown origin) expressed in COS7 cells measured after overnight incubation by luciferase reporter gene assay; assay type: cell-based, COS-7
T7 sequence (Q03181 whole entry): T4 sequence (whole entry)

[10] = target: T4, Peroxisome proliferator-activated receptor delta (Homo sapiens); test: Transactivation of Gal4-tagged PPARdelta ligand binding domain (unknown origin) expressed in COS7 cells measured after overnight incubation by luciferase reporter gene assay relative to L165,041; assay type: cell-based; conditions: Chlorocebus aethiops; COS-7

Structure (SMILES)	Activity [1]	Activity [2]	Activity [3]	Activity [4]	max activation [5] [%]	EC50 [6] [µM]	max activation [7] [%]	EC50 [8] [µM]	EC50 [9] [µM]	max activation [10] [%]
O=C(O)CCCNC(=O)c1ccccc1NC(=O)C(c1ccccc1)c1ccccc1	inactive	inactive	inactive	inactive						
COc1ccc(C(=O)O)cc1NC(=O)c1ccccc1NC(=O)c1ccc(C(C)(C)C)cc1				inactive	154	4.5	15	2.9		
O=C(O)CCCCNC(=O)c1ccccc1NC(=O)c1ccc2ccccc2c1			inactive	inactive	269	26				
Cc1c(NC(=O)c2ccccc2NC(=O)c2ccc(C(C)(C)C)cc2)cccc1C(=O)O			inactive	inactive	70	13.5	19			
O=C(O)CCCNC(=O)c1ccccc1NC(=O)c1ccccc1-c1ccccc1	inactive		inactive	inactive	45	23				
COc1cccc(NC(=O)c2ccccc2NC(=O)c2ccc(C(C)(C)C)cc2)c1		inactive	inactive	inactive			13			
CN(C(=O)c1ccc2ccccc2c1)c1ccccc1C(=O)NCCCC(=O)O	inactive	inactive	inactive	inactive						
CN(CCCC(=O)O)C(=O)c1ccccc1NC(=O)c1ccc2ccccc2c1	inactive	inactive	inactive	inactive						
CC(C)(C)c1ccc(C(=O)Nc2ccccc2C(=O)NCCCC(=O)O)cc1		inactive	inactive	inactive						
O=C(O)CCCNC(=O)c1ccccc1NC(=O)c1ccc(-c2ccccc2)cc1	inactive		inactive	inactive	135	13				
COc1ccc(NC(=O)c2ccccc2NC(=O)c2ccc(C(C)(C)C)cc2)cc1C(=O)O				inactive	96	4.4	19	0.74		
O=C(O)CCCNC(=O)c1ccccc1NC(=O)c1ccc2ccccc2c1			inactive	inactive	432	18.1				
O=C(O)CCCNC(=O)c1ccccc1NC(=O)c1cccc(-c2ccccc2)c1	inactive			inactive	229	37		10		
CC(C)(C)c1ccc(C(=O)Nc2ccccc2C(=O)Nc2cccc(C#N)c2)cc1		inactive	inactive	inactive			18			

More lines, now with the values ahead:

Activity [1]	Activity [2]	Activity [3]	Activity [4]	max activation [5] [%]	EC50 [6] [µM]	max activation [7] [%]	EC50 [8] [µM]	EC50 [9] [µM]	max activation [10] [%]	Structure (SMILES)
inactive	inactive	inactive	inactive							COc1ccc(C(=O)Nc2ccccc2C(=O)Nc2cccc(CC(=O)O)c2)cc1OC
			inactive	348	3.9	9.4	1.3			CC(C)(C)c1ccc(C(=O)Nc2ccccc2C(=O)Nc2cccc(C(=O)O)c2)cc1
inactive	inactive	inactive	inactive							N#Cc1ccc(C(=O)Nc2ccccc2C(=O)Nc2cccc(CC(=O)O)c2)cc1
				121	6.2	26	4.4	5.4	46	CC(C)(C)c1ccc(C(=O)Nc2ccccc2C(=O)Nc2cccc(CC(=O)O)c2)cc1
inactive	inactive	inactive	inactive							O=C(O)c1cccc(NC(=O)c2c(Cl)cccc2NC(=O)c2ccc(C(F)(F)F)cc2)c1
inactive	inactive	inactive	inactive							CC(C)(C)c1ccc(C(=O)Nc2c(Cl)cccc2C(=O)Nc2cccc(C(=O)O)c2)cc1
		inactive	inactive	639	21					O=C(O)c1ccc(NC(=O)c2ccccc2NC(=O)c2ccc3ccccc3c2)cc1
			inactive	98	5.4	19	9.1			CC(C)(C)c1ccc(C(=O)Nc2ccccc2C(=O)Nc2ccc(Cl)c(C(=O)O)c2)cc1
			inactive	221	25	12	19			O=C(O)c1cccc(NC(=O)c2ccccc2NC(=O)c2ccc3c(c2)OCO3)c1
				240	6.9	32	2.2	3	37	O=C(O)c1cccc(NC(=O)c2ccccc2NC(=O)c2ccc(C(F)(F)F)c(F)c2)c1
				384	8.5	26	5.8	3.2	46	O=C(O)c1cccc(NC(=O)c2ccccc2NC(=O)c2ccc(C(F)(F)F)cc2)c1
				58	4.5	14.3	3.6	12	44	O=C(O)c1cccc(NC(=O)c2ccccc2NC(=O)c2ccc(Br)cc2)c1
				126	5.5		1.96	4.7	51	O=C(O)c1cccc(NC(=O)c2ccccc2NC(=O)c2ccc3ccccc3c2)c1
			inactive	82	6.3	16	4.1			CC(C)(C)c1ccc(C(=O)Nc2ccccc2C(=O)Nc2ccc(Br)c(C(=O)O)c2)cc1

From ChEMBL document CHEMBL3393039, “Anthranilic acid derivatives as nuclear receptor modulators--development of novel PPAR selective and dual PPAR/FXR ligands” (Bioorg Med Chem, 2015)
